The test system of this experiment is SMN protein. Kind of experiment: cellular SMN ELISA (SMN protein elevation). It is filed as cell-based. To be noted: myoblast cell line from SMNdelta7 mouse model, 24 hours treatment; for SMN activity Fold: fold activation over DMSO control. How it is done:
A cellular SMN ELISA was used to measure the effects of low molecular weight compounds on SMN protein elevation. Cells from a myoblast cell line derived from the SMNdelta7 mouse model (kind gift from Steve Burden, NYU) were seeded into a 384-well plate at a density of 3000 cells/well and treated with compounds for 24 hours. ELISA capture plates were prepared by coating 384-well plates (Immulon 4HBX) with 0.5 ug/mL of anti-SMN mAb (BD Science, Catalog number 610647) at 4° C. overnight. The plates were washed 5 times with 110 uL of PBS-Tween (0.05% Tween-20, PBST), blocked with 100 uL of 1% BSA in PBST for 2 hours and washed (5 times) with 100 uL of PBST. After 24 hours of compound treatment cells were lysed in a modified RIPA-buffer, on ice for 1 hour. 20 uL of lysate and 20 uL of 1% BSA were then added to the ELISA capture plates and incubated at 4° C. overnight. Plates were washed (5 times) with PBST and then incubated with 1:100 dilution of primary rabbit anti-SMN polyclonal antibody (Santa cruz, Catalog number SC-15320) at room temperature for 1 hour and subsequently washed (5 times) with 110 uL of PBST. This was followed by addition of 1:100 Goat anti-Rabbit IgG-HRP linked (Cell Signaling, Catalog number 7074) secondary antibody for 1 hour. Plates were then washed with PBST and incubated with 40 uL TMB substrate (Cell Signaling, Catalog number 7004L) at room temperature for 1-10 minutes with shaking. The reaction was stopped by addition of 40 uL of stop solution (Cell signaling, Catalog number 7002L) and absorption was measured at 450 nm. Data was reported as fold activation over DMSO control, and EC50.
ELISA assay condition 1: compound concentration range 20 nM-10 uM; ELISA assay condition 2: compound concentration 100 pM-10 uM.
Background: An ELISA detects its analyte on a solid surface through an enzyme-linked reagent.

The mark [1] stands for this setting: ELISA condition 2: compound concentration 100 pM-10 uM.
Setting [2] is: ELISA condition 1: compound concentration range 20 nM-10 uM.

These results are taken from patent publication US10195196B2, “1,4-disubstituted pyridazine analogs there of and methods for treating SMN-deficiency-related conditions” (NOVARTIS AG, priority 2012, dated 2019).

For the molecule `CN(c1ccc(-c2c(O)cc(-c3cc[nH]c(=O)c3)cc2F)nn1)C1CC(C)(C)NC(C)(C)C1` [Example 40-2, 4-(3-fluoro-5-hydroxy-4-(6-(methyl(2,2,6,6-tetramethylpiperidin-4-yl)amino)pyridazin-3-yl)phenyl)pyridin-2(1H)-one], under setting [1], the EC50 (usually the concentration needed to bring the measured effect to its halfway point) was found to be 25 nM and the “SMN activity Fold” value turned out to be 2.78 Fold.

On to `CN(c1ccc(-c2ccc(-c3ccccc3)nc2)nn1)C1CC(C)(C)NC(C)(C)C1` [Example 1-17, methyl-[6-(6-phenyl-pyridin-3-yl)-pyridazin-3-yl]-(2,2,6,6-tetramethyl-piperidin-4-yl)-amine], for which, under setting [1], the EC50 is 926 nM and the “SMN activity Fold” value amounted to 2.37 Fold.

Take `CN(c1ccc(-c2cc3ccc(C4=CCOCC4)cc3cc2O)nn1)C1CC(C)(C)NC(C)(C)C1` [Example 24-8, 7-(3,6-dihydro-2H-pyran-4-yl)-3-(6-(methyl(2,2,6,6-tetramethylpiperidin-4-yl)amino)pyridazin-3-yl)naphthalen-2-ol]: under setting [1], the EC50 is 7 nM and the “SMN activity Fold” value came to 2.39 Fold.

Turning to `Oc1cc(-n2cccn2)ccc1-c1ccc(N2CCNCC2)nn1` [Example 18-1, 2-(6-piperazin-1-yl-pyridazin-3-yl)-5-pyrazol-1-yl-phenol], under setting [1], it took 296 nM to reach a half-maximal effect (EC50) and the “SMN activity Fold” value was determined as 3.07 Fold.

In the case of `CN(c1ccc(-c2cc(-c3cn[nH]c3)c(F)cc2O)nn1)C1CC(C)(C)NC(C)(C)C1` [Example 34-4, 5-fluoro-2-(6-(methyl(2,2,6,6-tetramethylpiperidin-4-yl)amino)pyridazin-3-yl)-4-(1H-pyrazol-4-yl)phenol], under setting [1], it took 37 nM to reach a half-maximal effect (EC50) and the “SMN activity Fold” value was 2.34 Fold.

In the case of `CN(c1ccc(-c2ccc(-c3cn(C)cn3)cc2O)nn1)C1CC(C)(C)NC(C)(C)C1` [Example 42-6, 2-(6-(methyl(2,2,6,6-tetramethylpiperidin-4-yl)amino)pyridazin-3-yl)-5-(1-methyl-1H-imidazol-4-yl)phenol], under setting [1], the EC50 was determined as 66 nM and the “SMN activity Fold” value was found to be 2.49 Fold.

Turning to `CN(c1ccc(-c2ccc(-c3ccn(C4CC4)c(=O)c3)cc2O)nn1)C1CC(C)(C)NC(C)(C)C1` [Example 41-14, 1-cyclopropyl-4-(3-hydroxy-4-(6-(methyl(2,2,6,6-tetramethylpiperidin-4-yl)amino)pyridazin-3-yl)phenyl)pyridin-2(1H)-one], under setting [1], the EC50 came to 84 nM and the “SMN activity Fold” value turned out to be 3.21 Fold.

In the case of `CN(c1ccc(-c2cc3ccc(O)c(Cl)c3cc2O)nn1)C1CC(C)(C)NC(C)(C)C1` [Example 24-5, 1-chloro-6-(6-(methyl(2,2,6,6-tetramethylpiperidin-4-yl)amino)pyridazin-3-yl)naphthalene-2,7-diol], under setting [1], it took 47 nM to reach a half-maximal effect (EC50) and the “SMN activity Fold” value is listed as 2.99 Fold.

As for `CN(c1ccc(-c2cccc(F)c2O)nn1)C1CC(C)(C)NC(C)(C)C1` [Example 3-8, 2-fluoro-6-{6-[methyl-(2,2,6,6-tetramethyl-piperidin-4-yl)-amino]-pyridazin-3-yl}-phenol], under setting [1], a half-maximal effect (EC50) was put at 1580 nM and the “SMN activity Fold” value is on record as 2.72 Fold.

Consider `COc1ccc(-c2ccc(N(C)C3CC(C)(C)NC(C)(C)C3)nn2)c(O)c1` [Example 3-11, 5-methoxy-2-{6-[methyl-(2,2,6,6-tetramethyl-piperidin-4-yl)-amino]-pyridazin-3-yl}-phenol], for which, under setting [1], the EC50 came out at 220 nM and the “SMN activity Fold” value was 2.47 Fold.

For `CN(c1ccc(-c2cnc3ccccc3n2)nn1)C1CC(C)(C)NC(C)(C)C1` [Example 1-20, methyl-(6-quinoxalin-2-yl-pyridazin-3-yl)-(2,2,6,6-tetramethyl-piperidin-4-yl)-amine], under setting [2], a half-maximal response (EC50) required 470 nM and the “SMN activity Fold” value worked out at 3.04 Fold.

For the molecule `COc1ccc2cc(-c3ccc(N(C)C4CC(C)(C)NC(C)(C)C4)nn3)c(O)cc2c1` [Example 24-6, 7-methoxy-3-(6-(methyl(2,2,6,6-tetramethylpiperidin-4-yl)amino)pyridazin-3-yl)naphthalen-2-ol], under setting [1], the EC50 came to 6 nM and the “SMN activity Fold” value was 2.39 Fold.

`CC1(C)CC(Nc2ccc(-c3ccccc3O)nn2)CC(C)(C)N1` [Example 1-3, 2-(6-(2,2,6,6-tetramethylpiperidin-4-ylamino)-pyridazin-3-yl)phenol]: under setting [1], the EC50 was determined as 726 nM and the “SMN activity Fold” value is recorded as 2.45 Fold.

On to `CN(c1ccc(-c2cc3c(cc2O)C(=O)CC3)nn1)C1CC(C)(C)NC(C)(C)C1` [Example 35-1, 6-hydroxy-5-(6-(methyl(2,2,6,6-tetramethylpiperidin-4-yl)amino)pyridazin-3-yl)-2,3-dihydro-1H-inden-1-one], for which, under setting [1], a half-maximal effect (EC50) was put at 27 nM and the “SMN activity Fold” value came to 2.79 Fold.

In the case of `Oc1cc(-n2cccn2)ccc1-c1ccc(OC2CCNC2)nn1` (centres unmarked) [Example 17-5, 5-(1H-pyrazol-1-yl)-2-(6-(pyrrolidin-3-yloxy)pyridazin-3-yl)phenol], under setting [1], the half-maximal effective concentration (EC50) was 2440 nM and the “SMN activity Fold” value amounted to 2.78 Fold.

Take `Cc1c[nH]c(-c2ccc(-c3ccc(N(C)C4CC(C)(C)NC(C)(C)C4)nn3)c(O)c2)n1` [Example 42-5, 2-(6-(methyl(2,2,6,6-tetramethylpiperidin-4-yl)amino)pyridazin-3-yl)-5-(4-methyl-1H-imidazol-2-yl)phenol]: under setting [1], the midpoint of the response, the EC50, lay at 202 nM and the “SMN activity Fold” value turned out to be 3.22 Fold.

Regarding `CC1(C)CC(Oc2ccc(-c3cc4ccc(O)cc4cc3O)nn2)CC(C)(C)N1` [Example 20-1, 3-(6-((2,2,6,6-tetramethylpiperidin-4-yl)oxy)pyridazin-3-yl)naphthalene-2,7-diol], under setting [1], it took 18 nM to reach a half-maximal effect (EC50) and the “SMN activity Fold” value was found to be 2.75 Fold.

On to `Cc1nc2ccc(-c3ccc(NC4CC(C)(C)NC(C)(C)C4)nn3)cc2o1` [Example 2-3, 6-(2-methylbenzo-[d]oxazol-6-yl)-N-(2,2,6,6-tetramethyl-piperidin-4-yl)pyridazin-3-amine], for which, under setting [2], the half-maximal effective concentration (EC50) stood at 1200 nM and the “SMN activity Fold” value worked out at 2.46 Fold.

With `CC1(C)CC(Nc2ccc(-c3ccc(-n4cccn4)cc3O)nn2)CC(C)(C)N1` [Example 30-1, 5-(1H-pyrazol-1-yl)-2-(6-((2,2,6,6-tetramethylpiperidin-4-yl)amino)pyridazin-3-yl)phenol], under setting [1], the EC50 came out at 8 nM and the “SMN activity Fold” value worked out at 2.99 Fold.

Take `CC1(C)CC(Oc2ccc(-c3ccc(-c4ccnc(O)c4)cc3O)nn2)CC(C)(C)N1` [Example 41-9, 4-(3-hydroxy-4-(6-((2,2,6,6-tetramethylpiperidin-4-yl)oxy)pyridazin-3-yl)phenyl)pyridin-2-ol]: under setting [1], the midpoint of the response, the EC50, lay at 72 nM and the “SMN activity Fold” value came to 4.2 Fold.

`CN1C(C)(C)CC(Nc2ccc(-c3ccc(Cl)cc3O)nn2)CC1(C)C` [Example 3-4, 5-chloro-2-(6-(1,2,2,6,6-pentamethylpiperidin-4-ylamino)pyridazin-3-yl)phenol]: under setting [2], the midpoint of the response, the EC50, lay at 620 nM and the “SMN activity Fold” value was found to be 2.03 Fold.

`CN1C[C@@H]2CN(c3ccc(-c4ccc(-c5ccn(C)c(=O)c5)cc4O)nn3)C[C@@H]2C1` [Example 43-4, 4-(3-hydroxy-4-(6-(5-methylhexahydropyrrolo[3,4-c]pyrrol-2(1H)-yl)pyridazin-3-yl)phenyl)-1-methylpyridin-2(1H)-one]: under setting [1], it took 41 nM to reach a half-maximal effect (EC50) and the “SMN activity Fold” value is 2.94 Fold.
